According to BindingDB's records for patent US20250243186 (Hansoh Bio, 2025):

Target: T1, Complement factor B [470-764] (UniProt P00751)
T1 construct: 470-764
Experiment: Factor B Binding Assay by TR-FRET
Description: Table 1: Factor B binding affinity of each compound tested was determined using a time-resolved fluorescence resonance energy transfer (TR-FRET) technology. 10 nM recombinant his-tagged Factor B catalytic domain, varying concentrations of inhibitors, 4 nM LANCE Eu-W1024 Anti-6×His Antibody and 100 nM TR-FRET_tool2 tracer was incubated in 1× Kinase Buffer A for 1 h. Measurement was performed in a reaction volume of 15 μL by adding 5 μL of the test compound, 5 μL of Factor B/antibody mixture and 5 μL of tracer into white opaque 384-well assay plates. The TR-FRET signal was read on a plate reader with an excitation wavelength of 340 nm and detection wavelengths of 615 and 665 nm.

T1 sequence (P00751 470-764): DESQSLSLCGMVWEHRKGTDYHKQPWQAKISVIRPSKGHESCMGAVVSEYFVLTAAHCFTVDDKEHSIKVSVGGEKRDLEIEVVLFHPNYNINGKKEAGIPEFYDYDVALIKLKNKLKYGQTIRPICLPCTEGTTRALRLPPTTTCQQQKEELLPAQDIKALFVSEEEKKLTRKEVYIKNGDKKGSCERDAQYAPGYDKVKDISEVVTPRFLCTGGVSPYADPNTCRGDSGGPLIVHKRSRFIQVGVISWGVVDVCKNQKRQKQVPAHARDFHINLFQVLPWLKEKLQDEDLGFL

IC50: 0.045 µM
Structure (SMILES): COc1cc(C)c2[nH]ccc2c1CN1CC2CCC2C1c1ccc(C(=O)O)cc1 (stereo unspecified) [US20250243186, Example 22]
